Test results: patent publication US20250162988A1, “CRYSTALS OF VITAMIN D DERIVATIVE OR CRYSTALS OF SOLVATE THEREOF” (TEIJIN PHARMA LIMITED, priority 2022, published 2025)

Assays:
[1] = in vivo; cited from earlier work
[2] = Evaluation of brain penetration in mice (single oral dose, plasma and brain level by LC/MS/MS); type: in vivo, C57BL/6J mice; conditions: mean ± S.D.
Method: The administration solution was administered orally to C57BL/6J mice (8 weeks old, male, n=3) at a single dose (1 mg/kg). Mice were euthanized at 6 points of 0.25, 0.5, 1, 2, 4, and 8 hours after administration, and plasma and brain sampling were performed. After preparing a homogenate from the collected brain using Tissue Lyser II (QIAGEN #85300), acetonitrile was added to the homogenate and the homogenate was centrifuged (TOMY DIGITAL BIOLOGY MX-307, 12000 rpm, 5 minutes) to extract the administered test compound contained in the brain. Similarly, the plasma was subjected to addition of acetonitrile and centrifugal separation to extract the administered test compound contained in the plasma. Each extracted sample was subjected to measurement of the concentration of administered test compound using LC/MS/MS (SHIMADZU UFLC/MS/MS (8050)).
The administration solution was administered orally to C57BL/6J mice (8 weeks old, male, n=3) at a single dose (0.2 mg/kg). Mice were euthanized at 6 points of 0.25, 0.5, 1, 2, 4, and 8 hours after administration, and plasma and brain sampling were performed. After preparing a homogenate from the collected brain using Tissue Lyser II (QIAGEN #85300), acetonitrile was added to the homogenate and the homogenate was centrifuged (TOMY DIGITAL BIOLOGY MX-307, 12000 rpm, 5 minutes) to extract the administered compound contained in the brain. Similarly, the plasma was subjected to addition of acetonitrile and centrifugal separation to extract the administered test compound contained in the plasma. Each extracted sample was subjected to measurement of the concentration of administered test compound using LC/MS/MS (SHIMADZU UFLC/MS/MS (8050)).

[3] = tested on: rat oligodendrocyte progenitor cells; test: Promotive activity of rat oligodendrocyte progenitor cell differentiation (MBP immunostaining); type: cell-based, SD rats; conditions: vitamin D derivative 2 μM, T3 30 nM, cultured for 4 days
Method: The promotive activity of oligodendrocyte progenitor cell (OPC) differentiation of the vitamin D derivatives was evaluated by immunostaining of myelin basic protein (MBP).
Subsequently, oligodendrocyte progenitor cell separation medium was added to the flask, and the mixture was similarly shaken for about 22 hours (37° C., 200 rpm), and the supernatant was collected to prepare oligodendrocyte progenitor cells.
After cell seeding, a solution of the test compound or a solution prepared from DMSO with a differentiation medium were added to the cells such that the DMSO concentration in the wells was 0.1%. The cells were cultured for 4 days.

[4] = Test 1, 1 mg/kg single oral dose

Brain level at the time of brain Cmax [2, 4] | SMILES | Average value (mean) of the ratio (the number of MBP-positive cells/the number of Hoechst33342-positive cells) ([3]; Test 1) | further results
– | C=C1/C(=C\C=C2/CCC[C@]3(C)[C@@H]([C@H](C)CCCC(C)(C)O)CC[C@@H]23)C[C@@H](O)C[C@@H]1O [1α,25-dihydroxyvitamin D3] | – | ratio of concentration in brain/concentration in blood [1]: 0.007±0.003
529 ± 53 pmol/g | C[C@H](CN1CC[C@H](C(F)F)C1)[C@H]1CC[C@H]2/C(=C/C=C3C[C@@H](O)C[C@H](O)C3)CCC[C@]12C [Compound (A), (1R,3R)-5-(2-((1R,3aS,7aR,E)-1-((S)-1-((S)-3-(difluoromethyl)pyrrolidin-1-yl)propan-2-yl)-7a-methyloctahydro-4H-inden-4-ylidene)ethylidene)cyclohexane-1,3-diol] | 0.47 | –
384 ± 40 pmol/g | C[C@H](CN1CC[C@@H](C(F)F)C1)[C@H]1CC[C@H]2/C(=C/C=C3C[C@@H](O)C[C@H](O)C3)CCC[C@]12C [Compound (B), (1R,3R)-5-(2-((1R,3aS,7aR,E)-1-((S)-1-((R)-3-(difluoromethyl)pyrrolidin-1-yl)propan-2-yl)-7a-methyloctahydro-4H-inden-4-ylidene)ethylidene)cyclohexane-1,3-diol] | 0.38 | –
562 ± 50 pmol/g | C[C@H](CN1CC[C@@H](C(C)(F)F)C1)[C@H]1CC[C@H]2/C(=C/C=C3C[C@@H](O)C[C@H](O)C3)CCC[C@]12C [Compound (C), (1R,3R)-5-(2-((1R,3aS,7aR,E)-1-((S)-1-((R)-3-(1,1-difluoroethyl)pyrrolidin-1-yl)propan-2-yl)-7a-methyloctahydro-4H-inden-4-ylidene)ethylidene)cyclohexane-1,3-diol] | 0.57 | –
80 ± 9 pmol/g | C[C@H](CN1CC[C@@H](CC(F)F)C1)[C@H]1CC[C@H]2/C(=C/C=C3C[C@@H](O)C[C@H](O)C3)CCC[C@]12C [Compound (D), (1R,3R)-5-(2-((1R,3aS,7aR,E)-1-((S)-1-((S)-3-(2,2-difluoroethyl)pyrrolidin-1-yl)propan-2-yl)-7a-methyloctahydro-4H-inden-4-ylidene)ethylidene)cyclohexane-1,3-diol] | – | Average value (mean) of the ratio (the number of MBP-positive cells/the number of Hoechst33342-positive cells) ([3]; Test 2): 0.53
595 ± 23 pmol/g | C[C@H](CCN1CCOCC1)[C@H]1CC[C@H]2/C(=C/C=C3C[C@@H](O)C[C@H](O)C3)CCC[C@]12C [Compound (E), (1R,3R)-5-(2-((1R,3aS,7aR,E)-7a-methyl-1-((R)-4-morpholinobutane-2-yl)octahydro-4H-inden-4-ylidene)ethylidene)cyclohexane-1,3-diol] | – | Average value (mean) of the ratio (the number of MBP-positive cells/the number of Hoechst33342-positive cells) ([3]; Test 2): 0.36
– | C[C@H](CN1CCOCC1(C)C)[C@H]1CC[C@H]2/C(=C/C=C3C[C@@H](O)C[C@H](O)C3)CCC[C@]12C [Compound (F), (1R,3R)-5-(2-((1R,3aS,7aR,E)-1-((S)-1-(3,3-dimethylmorpholino)propan-2-yl)-7a-methyloctahydro-4H-inden-4-ylidene)ethylidene)cyclohexane-1,3-diol] | – | Brain level at the time of brain Cmax ([2]; Test 2, 0.2 mg/kg single oral dose): 137.8 ± 11.5 pmol/g; Average value (mean) of the ratio (the number of MBP-positive cells/the number of Hoechst33342-positive cells) ([3]; Test 3): 0.50
